Results from patent US20170332666A1, “APPLICATION OF P-METHYL BENZOIC ACID OR SALTS THEREOF AS ADDITIVES FOR ANIMAL FEED” (priority 2015, published 2017).
Values joined by “and” are separate entries in the source; they are usually repeats but may differ in a detail not shown here. Equal entries are not always repeated.

Columns and labels:
[1] = tested on: weaned pigs; assay: Growth promotion test of weaned pigs with additives in creep feed; type: in vivo, pig (Duroc×Landrace×Large White piglets); settings: for Average daily weight gain / Diarrhea rate / Feed conversion ratio: 10 days
Source text: 140 weaned Duroc×Landrace×Large White piglets aged 28 days with similar body weight and further having an average body weight of 7.61 kg were divided into 14 groups, each with 10 pigs. After adding different concentrations of p-methyl benzoic acid or its calcium, sodium, potassium or zinc salt prepared by the embodiments disclosed herein into the conventional creep feed (excluding acidifying agent) of each group, the pigs were free feeding and drinking during the test period of 10 days, then to collect statistics of the weight gain and the feed conversion ratio as well as the diarrhea rate of test pig in each test group.

[2] = tested on: meat-type ducks; assay: Feeding test of meat-type ducks with additives in basic diet; type: in vivo, Cherry Valley ducks; settings: for Average daily weight gain / Average feed conversion ratio / Survival rate: 2000 ppm in basic diet, 30 days
Source text: 300 Cherry Valley ducks aged 1 day were divided into 6 groups with 50 ducks per group. After adding different concentrations of p-methyl benzoic acid or benzoic acid into the same basic diet (without antibiotics) of each group, the Cherry Valley ducks were free feeding and drinking, and continued feeding for 30 days, then to collect statistics of the production performance and the survival rate of test ducks, the test grouping and metered concentrations are shown in Table 3, and the results of the production performance are shown in Table 4.

[3] = tested on: grass carps; assay: Growth promotion test in grass carps with additives in feed; type: in vivo, grass carp; settings: for Feed conversion ratio (FCR) / Final weight / Survival rate SR / Weight gain rate: 3000 ppm in feed, 8 weeks
Procedure: The test was performed on an aquaculture farm of Guangzhou Insighter Biotechnology CO., LTD, and the test fish is grass carp. Healthy and lively grass carps with the same species and sizes were fed in a large cage for 4 weeks, thereafter used for formal test, and the test system is a small floating cage. The small floating cage and temporary cages were placed in a 3500 square meter pond of the test field. Water depth of the pond was close to 1.5m, and the pond water is fully aerated. When testing, 160 grass carps starved for 1 day were randomly divided into 4 groups, each group with 4 replicates, and each replicate with 10 fish. After the whole weighing, the samples were randomly placed in 16 cages and fed with different test diets. The test diets were self-formulated in accordance with Table 5, and the basic diets of different test groups were adding different growth promoters respectively. The test adopted artificial feeding with food restriction, and the feed intake was adjusted once a week, the feeding levels of two groups were completely consistent (metered by the initial weight), the fish in each group is fed two times in one day (7:30 and 15:00). The test lasted for 8 weeks.

[4] = tested on: broilers; assay: Growth promotion test of broilers with acidifying agents in complete formula feed; type: in vivo, broilers (chicken); settings: for Effect on daily gain (in words) / Effect on feed conversion ratio (in words): 2000 ppm; for Average daily weight gain / Feed conversion ratio: 2000 ppm in complete formula feed, 21 days
Procedure: 300 broilers (female seedlings) aged 1 day were divided into 6 groups in accordance with Table 6, and each group with 50 broilers. Acidifying agent with different type or concentration was added to the complete formula feed for chickens without any acidifying agents in each group, the broilers were free feeding and drinking during the test period of 21 days and then to collect statistics of the weight gain and the feed conversion ratio of test broiler in each test group.

| Structure (SMILES) | Average daily weight gain ([1]; 2000 ppm in creep feed) | Diarrhea rate ([1]; 2000 ppm in creep feed) | Feed conversion ratio ([1]; 2000 ppm in creep feed) | Survival rate [2] | Feed conversion ratio (FCR) [3] | Final weight [3] | Survival rate SR [3] | Weight gain rate [3] | Effect on diarrhea rate of test pigs (in words) ([1]; 2000 ppm) | Improvement of production performance (in words) ([1]; 2000 ppm) | Effect on diarrhea rate of test pigs (in words) ([1]; 10000 ppm to 20000 ppm) | Improvement of production performance (in words) ([1]; 10000 ppm to 20000 ppm) | Effect on daily gain (in words) [4] | Effect on feed conversion ratio (in words) [4] | Average daily weight gain [4] | Feed conversion ratio [4] | further results |
| --- | --- | --- | --- | --- | --- | --- | --- | --- | --- | --- | --- | --- | --- | --- | --- | --- | --- |
| O=C(O)c1ccccc1 [benzoic acid] | 192.3 g and 193.5 g | 22.0% and 23.0% | 1.66 and 1.65 | 92% | 1.46 | 585 g | 100% | 147% |  |  |  |  |  |  |  |  | Rate of anti-diarrhea as compared to phosphoric acid or citric acid (in words) ([1]; equal concentration (2000 ppm)): increased slightly; Average daily weight gain [2]: 59.7; Average feed conversion ratio [2]: 2.10 |
| Cc1ccc(C(=O)[O-])cc1.Cc1ccc(C(=O)[O-])cc1.[Ca+2] [calcium p-methyl benzoate] | 203.6 g | 12.0% | 1.54 |  | 1.40 | 612 g | 100% | 157% | significantly reduce the diarrhea rate | significant dose effect | significantly reduce the diarrhea rate | significant dose effect |  |  |  |  | Growth promotion versus blank control group (in words) [3]: obvious effects on growth promotion |
| O=C(O)CC(O)(CC(=O)O)C(=O)O [citric acid, reference compound] | 181.3 g and 180.4 g | 31.0% and 26.0% | 1.67 and 1.68 |  | 1.47 | 582 g | 100% | 147% | no such effects | no such effects |  |  | no such effects | no such effects | 19.8 g | 1.88 |  |
| O=CO [formic acid, reference compound] | 173.4 g | 25.0% | 1.65 | 93% |  |  |  |  |  |  |  |  |  |  |  |  | Average daily weight gain [2]: 58.6; Average feed conversion ratio [2]: 2.11 |
| Cc1ccc(C(=O)O)cc1 [p-methyl benzoic acid] |  |  |  | 100% |  |  |  |  | significantly reduce the diarrhea rate | significant dose effect | significantly reduce the diarrhea rate | significant dose effect |  |  | 24.5 g | 1.76 | Average daily weight gain ([1]; 10000 ppm in creep feed): 215.8 g; Diarrhea rate ([1]; 10000 ppm in creep feed): 11.0%; Feed conversion ratio ([1]; 10000 ppm in creep feed): 1.51; Average daily weight gain ([1]; 20000 ppm in creep feed): 221.4 g; Diarrhea rate ([1]; 20000 ppm in creep feed): 9.0%; Feed conversion ratio ([1]; 20000 ppm in creep feed): 1.47; Production performance and survival rate (in words) [2]: greatly improved |
| O=P(O)(O)O [phosphoric acid, reference compound] | 175.3 g | 27.0% | 1.66 |  |  |  |  |  | no such effects | no such effects |  |  |  |  |  |  |  |
| Cc1ccc(C(=O)[O-])cc1.[K+] [potassium p-methyl benzoate] | 205.8 g | 15.0% | 1.58 |  |  |  |  |  |  |  | significantly reduce the diarrhea rate | significant dose effect |  |  |  |  |  |
| Cc1ccc(C(=O)[O-])cc1.[Na+] [sodium p-methyl benzoate] | 203.7 g | 17.0% | 1.55 |  |  |  |  |  |  |  | significantly reduce the diarrhea rate | significant dose effect | significantly increase the daily gain | improve the feed conversion ratio | 24.3 g | 1.79 |  |
| C/C=C/C=C/C(=O)O [sorbic acid] |  |  |  |  |  |  |  |  |  |  |  |  | no such effects | no such effects | 19.9 g | 1.89 |  |
| Cc1ccc(C(=O)[O-])cc1.Cc1ccc(C(=O)[O-])cc1.[Zn+2] [zinc p-methyl benzoate] | 201.3 g | 15.0% | 1.60 |  |  |  |  |  |  |  |  |  |  |  |  |  |  |
